In ChEMBL document CHEMBL3044906, “Synthesis and blood glucose lowering activity of some novel benzenesulfonylthiourea derivatives substituted with 6-aryl-4,5-dihyropyridazin-3(2H)-ones” (2012):
Activity calls are given as the source filed them. The calls are words filed in the database; no cut-off is given here.

Tests used:
Rattus norvegicus [1] = experiment: Antihyperglycemic activity in Rattus norvegicus Wistar albino (rat) assessed as reduction in blood glucose level at 20 mg/kg, po administered 30 min before 3 g/kg, po glucose challenge by oral glucose tolerance test; type: functional
Rattus norvegicus [2] = experiment: Antihyperglycemic activity in Rattus norvegicus Wistar albino (rat) assessed as blood glucose level at 20 mg/kg, po administered 30 min before 3 g/kg, po glucose challenge by oral glucose tolerance test (reference value: 149 +/- 6.3 mg/dl); type: functional

O=C1CCC(c2ccc(-c3ccccc3)cc2)=NN1c1ccc(S(=O)(=O)NC(=S)NCc2ccccc2)cc1
inhibition in vivo at 20 mg/kg (Rattus norvegicus [1]): 24.8%
Activity (Rattus norvegicus [2]): 137.5 mg/dL

CCCNC(=S)NS(=O)(=O)c1ccc(N2N=C(c3ccccc3)CCC2=O)cc1
inhibition (Rattus norvegicus [1]): inactive
Activity (Rattus norvegicus [2]): 160 mg/dL

CCCNC(=S)NS(=O)(=O)c1ccc(N2N=C(c3ccc(Cl)cc3)CCC2=O)cc1
inhibition in vivo at 20 mg/kg (Rattus norvegicus [1]): 32.7%
Activity (Rattus norvegicus [2]): 132.5 mg/dL

CCc1ccc(C2=NN(c3ccc(S(=O)(=O)NC(=S)NCc4ccccc4)cc3)C(=O)CC2)cc1
inhibition in vivo at 20 mg/kg (Rattus norvegicus [1]): 3.8%
Activity (Rattus norvegicus [2]): 148 mg/dL

Cc1ccc(C2=NN(c3ccc(S(=O)(=O)NC(=S)NCc4ccccc4)cc3)C(=O)CC2)cc1
inhibition in vivo at 20 mg/kg (Rattus norvegicus [1]): 21.3%
Activity (Rattus norvegicus [2]): 136 mg/dL

O=C1CCC(c2ccc(Cl)cc2)=NN1c1ccc(S(=O)(=O)NC(=S)Nc2ccccc2)cc1
inhibition in vivo at 20 mg/kg (Rattus norvegicus [1]): 4.7%
Activity (Rattus norvegicus [2]): 148 mg/dL

O=C1CCC(c2ccc(Oc3ccccc3)cc2)=NN1c1ccc(S(=O)(=O)NC(=S)NCc2ccccc2)cc1
inhibition in vivo at 20 mg/kg (Rattus norvegicus [1]): 3%
Activity (Rattus norvegicus [2]): 147.5 mg/dL

O=C1CCC(c2ccc(Cl)cc2)=NN1c1ccc(S(=O)(=O)NC(=S)NCc2ccccc2)cc1
inhibition in vivo at 20 mg/kg (Rattus norvegicus [1]): 38.8%
Activity (Rattus norvegicus [2]): 128.5 mg/dL

COc1ccc(Cl)cc1C(=O)NCCc1ccc(S(=O)(=O)NC(=O)NC2CCCCC2)cc1 [GLYBURIDE]
Activity (Rattus norvegicus [2]): 94.3 mg/dL

O=C1CCC(c2ccc(-c3ccccc3)cc2)=NN1c1ccc(S(=O)(=O)NC(=S)Nc2ccccc2)cc1
inhibition (Rattus norvegicus [1]): inactive
Activity (Rattus norvegicus [2]): 166 mg/dL

CCCNC(=S)NS(=O)(=O)c1ccc(N2N=C(c3ccc(OC)cc3)CCC2=O)cc1
inhibition in vivo at 20 mg/kg (Rattus norvegicus [1]): 37.1%
Activity (Rattus norvegicus [2]): 132 mg/dL

O=C1CCC(c2ccccc2)=NN1c1ccc(S(=O)(=O)NC(=S)NCc2ccccc2)cc1
inhibition in vivo at 20 mg/kg (Rattus norvegicus [1]): 26.6%
Activity (Rattus norvegicus [2]): 139 mg/dL

COc1ccc(C2=NN(c3ccc(S(=O)(=O)NC(=S)Nc4ccccc4)cc3)C(=O)CC2)cc1
inhibition (Rattus norvegicus [1]): inactive
Activity (Rattus norvegicus [2]): 170.5 mg/dL

COc1ccc(C2=NN(c3ccc(S(=O)(=O)NC(=S)NCc4ccccc4)cc3)C(=O)CC2)cc1
inhibition in vivo at 20 mg/kg (Rattus norvegicus [1]): 5.6%
Activity (Rattus norvegicus [2]): 152 mg/dL

CCCNC(=S)NS(=O)(=O)c1ccc(N2N=C(c3ccc(Oc4ccccc4)cc3)CCC2=O)cc1
inhibition (Rattus norvegicus [1]): inactive
Activity (Rattus norvegicus [2]): 152 mg/dL

CCCNC(=S)NS(=O)(=O)c1ccc(N2N=C(c3ccc(C)cc3)CCC2=O)cc1
inhibition in vivo at 20 mg/kg (Rattus norvegicus [1]): 30.9%
Activity (Rattus norvegicus [2]): 134.5 mg/dL
